Key:
Phakopsora pachyrhizi = assay: Test A: test suspension sprayed on soybean seedlings one day before inoculation with Phakopsora pachyrhizi spores (Asian soybean rust), visual disease rating; format: in vivo; conditions: 100 = 100% disease control, 0 = no control; for pest or weed control at 50 ppm / pest or weed control at 10 ppm: Phakopsora pachyrhizi
Text: General protocol for preparing test suspensions for Tests A-C: the test compounds were first dissolved in acetone in an amount equal to 3% of the final volume and then suspended at the desired concentration (in ppm) in acetone and purified water (50/50 mix by volume) containing 250 ppm of the surfactant PEG400 (polyhydric alcohol esters). The resulting test suspensions were then used in Tests A-C.
The test solution was sprayed to the point of run-off on soybean seedlings. The following day the seedlings were inoculated with a spore suspension of Phakopsora pachyrhizi (the causal agent of Asian soybean rust) and incubated in a saturated atmosphere at 22° C. for 24 h, and then moved to a growth chamber at 22° C. for 8 days, after which time visual disease ratings were made.
Results for Tests A-C are given in Table A. In the Table, a rating of 100 indicates 100% disease control and a rating of 0 indicates no disease control (relative to the controls). An asterisk “*” or a double asterisk “**” next to the rating value indicates a 50 ppm or 10 ppm test suspension was used, respectively. A dash (-) indicates the compound was not tested.

[1] = tested on: Puccinia recondita f. sp. tritici; assay: Test B: test suspension sprayed on wheat seedlings one day before inoculation with Puccinia recondita f. sp. tritici spores (wheat leaf rust), disease rating; format: in vivo; conditions: 100 = 100% disease control, 0 = no control
Text: General protocol for preparing test suspensions for Tests A-C: the test compounds were first dissolved in acetone in an amount equal to 3% of the final volume and then suspended at the desired concentration (in ppm) in acetone and purified water (50/50 mix by volume) containing 250 ppm of the surfactant PEG400 (polyhydric alcohol esters). The resulting test suspensions were then used in Tests A-C. The test solution was sprayed to the point of run-off on wheat seedlings. The following day the seedlings were inoculated with a spore suspension of Puccinia recondita f. sp. tritici (the causal agent of wheat leaf rust) and incubated in a saturated atmosphere at 20° C. for 24 h, and then moved to a growth chamber at 20° C. for 6 days, after which time disease ratings were made. Results for Tests A-C are given in Table A. In the Table, a rating of 100 indicates 100% disease control and a rating of 0 indicates no disease control (relative to the controls). An asterisk “*” or a double asterisk “**” next to the rating value indicates a 50 ppm or 10 ppm test suspension was used, respectively. A dash (-) indicates the compound was not tested.

Row | SMILES | Test A rating (disease control) (Phakopsora pachyrhizi; 10 ppm test suspension) | Test B rating (disease control) ([1]; 10 ppm test suspension) | also measured
1 | CCOC(=O)c1cnn(Cc2cccc(OCC(O)(O)C(F)(F)F)c2)c1 [Compound 266, ethyl 1-[[3-(3,3,3-trifluoro-2,2-dihydroxypropoxy)phenyl]methyl]-1H-pyrazole-4-carboxylate] | – | – | pest or weed control at 50 ppm (Phakopsora pachyrhizi; 50 ppm test suspension): 86%; pest or weed control at 50 ppm ([1]; 50 ppm test suspension): 74%
2 | CCCC(=O)N(Cc1ccc(OCC2(C(F)(F)F)OCCO2)cc1)OC [compound 237] | 97% | 0% | –
3 | CCO/C(=C\Oc1ccc(Cn2cnc(SC)n2)cc1)C(F)(F)F [Compound 261] | 0% | 0% | –
4 | C#CCOC(=O)c1ccc(O/C=C(\OCC)C(F)(F)F)cc1 [compound 75] | 0% | 0% | –
5 | O=Cc1cccc(OCC(O)(O)C(F)(F)F)c1 [compound 305] | – | – | pest or weed control at 10 ppm (Phakopsora pachyrhizi; 10 ppm test suspension): 70%; pest or weed control at 10 ppm ([1]; 10 ppm test suspension): 0%
6 | CCOC(=O)c1cnn(CCCc2ccc(OCC3(C(F)(F)F)OCCO3)cc2)c1 [compound 296] | 0% | 0% | –
7 | CCOC(=O)c1cnn(Cc2ccc(OCC3(C(F)(F)F)OCCO3)c(F)c2)c1 [Compound 263, ethyl 1-[[3-fluoro-4-[[2-(trifluoromethyl)-1,3-dioxolan-2-yl]methoxy]phenyl]methyl]-1H-pyrazole-4-carboxylate] | – | – | pest or weed control at 10 ppm (Phakopsora pachyrhizi; 10 ppm test suspension): 100%; pest or weed control at 10 ppm ([1]; 10 ppm test suspension): 0%
8 | CCOC(=O)c1cnn(Cc2ccc(OCC3(C(F)(F)F)OCCO3)s2)c1 [compound 273] | – | – | pest or weed control at 50 ppm (Phakopsora pachyrhizi; 50 ppm test suspension): 100%; pest or weed control at 50 ppm ([1]; 50 ppm test suspension): 0%
9 | CN(C)S(=O)(=O)c1ccc(OCC(O)(O)C(F)(F)F)cc1 [Compound 34] | 0% | 80% | –
10 | NCc1ccc(OCC2(C(F)(F)F)OCCO2)cc1 [compound 174] | 0% | 0% | –
11 | CN(C)C(=O)C1=NOC(c2ccc(OCC3(C(F)(F)F)OCCO3)cc2)C1 (stereo not shown) [compound 22] | 38% | 0% | –
12 | FC(F)(F)C1(COc2ccc(Oc3ccccc3)cc2)OCCO1 [compound 191] | 0% | 0% | –
13 | O=C(NCc1ccc(OCC2(C(F)(F)F)OCCO2)cc1)C1CC1 [compound 176] | 0% | 0% | –
14 | C#CCOC(=O)c1ccn(Cc2ccc(O/C=C(\OCC)C(F)(F)F)cc2)n1 [compound 325] | 100% | 0% | –
15 | CC(C)OC(=O)c1cnn(Cc2ccc(OCC3(C(F)(F)F)OCCO3)cc2)c1 [compound 14] | 100% | 0% | –
16 | C=CCOC(=O)c1ccc(O/C=C(\OCC)C(F)(F)F)cc1 [compound 74] | 0% | 0% | –
17 | O=C(NCC(F)(F)F)c1cnn(Cc2ccc(OCC3(C(F)(F)F)OCCO3)cc2)c1 [compound 197] | 0% | 0% | –
18 | N#Cc1cnn(Cc2ccc(OCC(O)(O)C(F)(F)F)cc2)c1 [Compound 206] | – | – | Test A rating (disease control) (Phakopsora pachyrhizi; 50 ppm test suspension): 100%; Test B rating (disease control) ([1]; 50 ppm test suspension): 98%
19 | CCOC(=O)c1ccn(Cc2ccc(OCC(O)(O)C(F)(F)F)cc2)n1 [Compound 233] | – | – | Test A rating (disease control) (Phakopsora pachyrhizi; 50 ppm test suspension): 100%; Test B rating (disease control) ([1]; 50 ppm test suspension): 96%
20 | CCO/C(=C\Oc1ccc(C=O)cc1)C(F)(F)F [compound 148] | 0% | 0% | –
21 | CCO/C(=C\Oc1ccc(C(=O)OC(C)C)cc1)C(F)(F)F [compound 73] | 0% | 0% | –
22 | CCOC(=O)c1cnn(Cc2ccc(OCC3(C(F)(F)F)OCCCO3)cc2)c1 [Compound 52] | 99% | 0% | –
23 | CCOC(=O)c1cn(Cc2ccc(O/C=C(\OCC)C(F)(F)F)cc2)nn1 [compound 121] | 100% | 0% | –
24 | N#Cc1cnn(Cc2ccc(OCC3(C(F)(F)F)OCCO3)cc2)c1 [compound 209] | 89% | 0% | –
25 | CCOC(=O)c1cnn(Cc2ccc(C(O)CC(O)(O)C(F)(F)F)cc2)c1 (stereo not shown) [Compound 51] | 0% | 0% | –

Row | SMILES | Test A rating (disease control) (Phakopsora pachyrhizi; 10 ppm test suspension) | Test B rating (disease control) ([1]; 10 ppm test suspension) | also measured
26 | CCOC(=O)c1csc(Cc2ccc(OCC(O)(O)C(F)(F)F)cc2)n1 [Compound 136] | 98% | 83% | –
27 | CCO/C(=C\Oc1ccc(Cc2ccnc(OCC[Si](C)(C)C)n2)cc1)C(F)(F)F [compound 313] | – | – | Test A rating (disease control) (Phakopsora pachyrhizi; 50 ppm test suspension): 0%; Test B rating (disease control) ([1]; 50 ppm test suspension): 0%
28 | N#CCNC(=O)c1cnn(Cc2ccc(OCC3(C(F)(F)F)OCCO3)cc2)c1 [compound 164] | 31% | 0% | –
29 | CCCNC(=O)c1ccc(O/C=C(\OCC)C(F)(F)F)cc1 [compound 104] | 0% | 80% | –
30 | COC(=O)c1ccc(OCC2(C(F)(F)F)OCCO2)cc1 [compound 189] | 0% | 0% | –
31 | CCOC(=O)c1cnn(Cc2ccc(O/C=C(\OC)C(F)(F)F)cc2)c1 [compound 53] | – | – | Test A rating (disease control) (Phakopsora pachyrhizi; 50 ppm test suspension): 100%; Test B rating (disease control) ([1]; 50 ppm test suspension): 67%
32 | CCO/C(=C\Oc1cccc(Cn2cc(C(=O)OC(C)C)cn2)c1)C(F)(F)F [compound 332] | 100% | 0% | –
33 | OCc1ccc(OCC2(C(F)(F)F)OCCO2)cc1 [compound 178] | 0% | 0% | –
34 | CCO/C(=C\Oc1ccc(CN2CCC(C)(C)C2=O)cc1)C(F)(F)F [compound 225] | 0% | 0% | –
35 | O=C(OCc1cccnc1)c1cnn(Cc2ccc(OCC3(C(F)(F)F)OCCO3)cc2)c1 [compound 200] | 100% | 0% | –
36 | CCO/C(=C\Oc1ccc(Cn2cncc2C(=O)OC)cc1)C(F)(F)F [compound 85] | 89% | 0% | –
37 | C=CCOC(=O)c1cnn(Cc2ccc(OCC(O)(O)C(F)(F)F)cc2)c1 [Compound 43] | 96% | 60% | –
38 | CC#CCOC(=O)c1ccn(Cc2ccc(O/C=C(\OCC)C(F)(F)F)cc2)n1 [compound 293] | 100% | 0% | –
39 | CCO/C(=C\Oc1ccc(Cn2ccc(C)n2)cc1)C(F)(F)F [compound 158] | 0% | 0% | –
40 | CC(=O)COC(=O)c1cnn(Cc2ccc(OCC3(C(F)(F)F)OCCO3)cc2)c1 [compound 169] | 100% | 0% | –
41 | CCO/C(=C\Oc1ccc(Cn2c(=O)oc3ccccc32)cc1)C(F)(F)F [compound 226] | 0% | 0% | –
42 | CCO/C(=C\Oc1ccc(CS(=O)(=O)CC)cc1)C(F)(F)F [compound 62] | 0% | 0% | –
43 | COC(C)C(=O)NCc1ccc(OCC2(C(F)(F)F)OCCO2)cc1 (stereo not shown) [compound 214] | 0% | 0% | –
44 | CCO/C(=C\Oc1ccc(C(=O)O)cc1)C(F)(F)F [compound 72] | – | – | Test A rating (disease control) (Phakopsora pachyrhizi; 50 ppm test suspension): 13%; Test B rating (disease control) ([1]; 50 ppm test suspension): 0%
45 | CCO/C(=C\Oc1ccc(Cn2cc(Cl)cn2)cc1)C(F)(F)F [compound 180] | 0% | 0% | –
46 | CCO/C(=C\Oc1ccc(Cn2ccc(C(F)(F)F)n2)cc1)C(F)(F)F [compound 181] | 0% | 0% | –
47 | O=C(OCc1ccc(F)c(F)c1)c1cnn(Cc2ccc(OCC(O)(O)C(F)(F)F)cc2)c1 [Compound 50] | 54% | 91% | –
48 | O=C(O)c1cnn(Cc2ccc(OCC3(C(F)(F)F)OCCO3)cc2)c1 [compound 93] | 96% | 0% | –
49 | N#Cc1ccc(OCC(O)(O)C(F)(F)F)cc1 [Compound 142] | 92% | 100% | –
50 | CCO/C(=C\Oc1ccc(CNC(=O)CC(F)(F)F)cc1)C(F)(F)F [compound 113] | 0% | 0% | –
